Test results: article PMC8456958, “Selective Bacterial Targeting and Infection‐Triggered Release of Antibiotic Colistin Conjugates” (Angewandte Chemie (International Ed. in English), 2021)
≈ marks a conversion by molar mass, not a printed value.

System: E. coli K12
Type: cell-based, Escherichia coli
Settings: for MIC with 10 mU mL^−1 Elastase / MIC with 100 mU mL^−1 Elastase / MIC without Elastase: Table 2, E. coli K12, conservative MIC readouts of at least three independent biological experiments
Procedure: Determination of antibacterial activities by broth dilution assay
Bacterial suspensions at 5-6 x 10^5 CFU (1:1000 dilution of a bacterial suspension of OD600 = 1) in T-medium were incubated in volumes of 200 µl in sterile clear 96-well microtiter plates at 37 °C in a wet chamber with serial dilution of peptide-colistin constructs and controls (32 – 0.016 µM) for 18 h.
External neutrophil elastase was added at 10 mU/ml or 100 mU/ml to each well at the start of incubation, where indicated. After the incubation, the plate was placed for 5 min on a MTP shaker to generate homogenous bacterial suspensions. OD600 was then determined in a microplate reader. The wells with the lowest compound concentration without growth defined the MICs. […]
Figure S7. Heat plot of the growth of E. coli K12 and E. coli DSM 1116 in presence of 6. Rows A-D: E. coli K12; Rows E-H: E. coli DSM 1116; A + E colistin; B + F peptide-colistin construct 6; C + G peptide-colistin construct 6 + 10 mU/ml elastase; D + H bacteria without compounds. The numbers below the heatplot depict the concentration of colistin and peptides in µM. Conditions: T medium, incubation 20 h at 37 °C in wet chamber; inoculum: cultures at OD = 1.0 diluted 1:1000 (5-6 x 10^5 CFU/ml). […]
Figure S10. Heat plot of the growth of E. coli in presence of 48 and 49. Row A: E. coli K12 without added compounds; B colistin B; C peptide-colistin construct 49; D peptide-colistin construct 49 + 10 mU/ml elastase; E ElsaSub-colistin; F 48 with 10 mU elastase; G 4; H 4 with […]. The numbers depict the concentration of colistin and peptides in µM. Conditions: T medium, incubation 17.5 h at 37 °C in wet chamber; inoculum 5-6 x 10^5 CFU/ml. […]
with elastase 10 mU/ml pos-1-isomer (22) […]
with elastase 10 mU/ml pos-3-isomer (28) […]
with elastase 10 mU/ml pos-5-isomer (34) […]
with elastase 10 mU/ml pos-8-isomer (40) […]
with elastase 10 mU/ml pos-9-isomer (46)
Figure S11. Heat plot of the growth of E. coli in presence of positional isomers obtained by total chemical synthesis. Conditions: T medium, incubation for 20 h at 37 °C in wet chamber; inoculum 5-6 x 10^5 CFU/ml. Addition of neutrophil elastase at 10 and 100 mU/ml, as indicated. Concentrations of isomers stated below the heat plot in µg/ml. […]

Compound	MIC with 10 mU mL^−1 Elastase [µM]	MIC with 100 mU mL^−1 Elastase [µM]	MIC without Elastase [µM]	also measured
4-pentinoyl-ßAla-Ala-Ala-Pro-Val-colistin B (lariat or depsi) [Compound 48]				MIC (E. coli K12, T medium, 17.5 h at 37 °C (Figure S10), text does not say with or without elastase): 16 µM
CC[C@H](NC(=O)[C@@H]1C[C@@H]2CCCC[C@@H]2N1C(=O)[C@H](CCS(C)(=O)=O)NC(=O)[C@H](Cc1ccc(C(=O)c2ccccc2)cc1)NC(=O)CCc1cn(CCCC[C@@H](NC(=O)CCNC(=O)[C@@H](CCCNC(=N)N)NC(=O)[C@@H](CCCNC(=N)N)NC(=O)[C@@H](CC(N)=O)NC(=O)[C@@H](Cc2ccc(O)cc2)NC(=O)[C@@H](CCC(N)=O)NC(=O)[C@@H](CCSC)NC(=O)[C@@H](CCCNC(=N)N)NC(=O)[C@@H](CCCNC(=N)N)NC(=O)[C@@H](CCCCN)NC(=O)[C@@H](C)NC(=O)[C@@H](CCCNC(=N)N)NC(=O)CNC(=O)[C@H](N)[C@H](C)O)C(N)=O)nn1)C(=O)NCC[C@H](NC(=O)CCCCC(C)C)C(=O)N[C@H](C(=O)N[C@@H](CCN)C(=O)N[C@H]1CCNC(=O)[C@H]([C@@H](C)O)NC(=O)[C@H](CCN)NC(=O)[C@H](CCN)NC(=O)[C@H](CC(C)C)NC(=O)[C@@H](CC(C)C)NC(=O)[C@H](CCN)NC1=O)[C@@H](C)O [Compound 22]	0.125	0.063	4 (≈ 15.2 µg/mL)	
CC[C@H](NC(=O)[C@@H]1C[C@@H]2CCCC[C@@H]2N1C(=O)[C@H](CCS(C)(=O)=O)NC(=O)[C@H](Cc1ccc(C(=O)c2ccccc2)cc1)NC(=O)CCc1cn(CCCC[C@@H](NC(=O)CCNC(=O)[C@@H](CCCNC(=N)N)NC(=O)[C@@H](CCCNC(=N)N)NC(=O)[C@@H](CC(N)=O)NC(=O)[C@@H](Cc2ccc(O)cc2)NC(=O)[C@@H](CCC(N)=O)NC(=O)[C@@H](CCSC)NC(=O)[C@@H](CCCNC(=N)N)NC(=O)[C@@H](CCCNC(=N)N)NC(=O)[C@@H](CCCCN)NC(=O)[C@@H](C)NC(=O)[C@@H](CCCNC(=N)N)NC(=O)CNC(=O)[C@H](N)[C@H](C)O)C(N)=O)nn1)C(=O)NCC[C@H](NC(=O)[C@@H](NC(=O)[C@H](CCN)NC(=O)CCCCC(C)C)[C@@H](C)O)C(=O)N[C@H]1CCNC(=O)[C@H]([C@@H](C)O)NC(=O)[C@H](CCN)NC(=O)[C@H](CCN)NC(=O)[C@H](CC(C)C)NC(=O)[C@@H](CC(C)C)NC(=O)[C@H](CCN)NC1=O [Compound 28]	0.25	0.125	8 (≈ 30.4 µg/mL)	
CC[C@H](NC(=O)[C@@H]1C[C@@H]2CCCC[C@@H]2N1C(=O)[C@H](CCS(C)(=O)=O)NC(=O)[C@H](Cc1ccc(C(=O)c2ccccc2)cc1)NC(=O)CCc1cn(CCCC[C@@H](NC(=O)CCNC(=O)[C@@H](CCCNC(=N)N)NC(=O)[C@@H](CCCNC(=N)N)NC(=O)[C@@H](CC(N)=O)NC(=O)[C@@H](Cc2ccc(O)cc2)NC(=O)[C@@H](CCC(N)=O)NC(=O)[C@@H](CCSC)NC(=O)[C@@H](CCCNC(=N)N)NC(=O)[C@@H](CCCNC(=N)N)NC(=O)[C@@H](CCCCN)NC(=O)[C@@H](C)NC(=O)[C@@H](CCCNC(=N)N)NC(=O)CNC(=O)[C@H](N)[C@H](C)O)C(N)=O)nn1)C(=O)NCC[C@@H]1NC(=O)[C@@H](NC(=O)[C@H](CCN)NC(=O)[C@@H](NC(=O)[C@H](CCN)NC(=O)CCCCC(C)C)[C@@H](C)O)CCNC(=O)[C@H]([C@@H](C)O)NC(=O)[C@H](CCN)NC(=O)[C@H](CCN)NC(=O)[C@H](CC(C)C)NC(=O)[C@@H](CC(C)C)NC1=O [Compound 34]	4	4	>32	
CC[C@H](NC(=O)[C@@H]1C[C@@H]2CCCC[C@@H]2N1C(=O)[C@H](CCS(C)(=O)=O)NC(=O)[C@H](Cc1ccc(C(=O)c2ccccc2)cc1)NC(=O)CCc1cn(CCCC[C@@H](NC(=O)CCNC(=O)[C@@H](CCCNC(=N)N)NC(=O)[C@@H](CCCNC(=N)N)NC(=O)[C@@H](CC(N)=O)NC(=O)[C@@H](Cc2ccc(O)cc2)NC(=O)[C@@H](CCC(N)=O)NC(=O)[C@@H](CCSC)NC(=O)[C@@H](CCCNC(=N)N)NC(=O)[C@@H](CCCNC(=N)N)NC(=O)[C@@H](CCCCN)NC(=O)[C@@H](C)NC(=O)[C@@H](CCCNC(=N)N)NC(=O)CNC(=O)[C@H](N)[C@H](C)O)C(N)=O)nn1)C(=O)NCC[C@@H]1NC(=O)[C@H](CC(C)C)NC(=O)[C@@H](CC(C)C)NC(=O)[C@H](CCN)NC(=O)[C@@H](NC(=O)[C@H](CCN)NC(=O)[C@@H](NC(=O)[C@H](CCN)NC(=O)CCCCC(C)C)[C@@H](C)O)CCNC(=O)[C@H]([C@@H](C)O)NC(=O)[C@H](CCN)NC1=O [Compound 40]	>32	32	>32	
CC[C@H](NC(=O)[C@@H]1C[C@@H]2CCCC[C@@H]2N1C(=O)[C@H](CCS(C)(=O)=O)NC(=O)[C@H](Cc1ccc(C(=O)c2ccccc2)cc1)NC(=O)CCc1cn(CCCC[C@@H](NC(=O)CCNC(=O)[C@@H](CCCNC(=N)N)NC(=O)[C@@H](CCCNC(=N)N)NC(=O)[C@@H](CC(N)=O)NC(=O)[C@@H](Cc2ccc(O)cc2)NC(=O)[C@@H](CCC(N)=O)NC(=O)[C@@H](CCSC)NC(=O)[C@@H](CCCNC(=N)N)NC(=O)[C@@H](CCCNC(=N)N)NC(=O)[C@@H](CCCCN)NC(=O)[C@@H](C)NC(=O)[C@@H](CCCNC(=N)N)NC(=O)CNC(=O)[C@H](N)[C@H](C)O)C(N)=O)nn1)C(=O)NCC[C@@H]1NC(=O)[C@H](CCN)NC(=O)[C@H](CC(C)C)NC(=O)[C@@H](CC(C)C)NC(=O)[C@H](CCN)NC(=O)[C@@H](NC(=O)[C@H](CCN)NC(=O)[C@@H](NC(=O)[C@H](CCN)NC(=O)CCCCC(C)C)[C@@H](C)O)CCNC(=O)[C@H]([C@@H](C)O)NC1=O [Compound 46]	32	8	>32	
(all-D) T-G-R-A-K-R-R-M-Q-Y-N-R-R-ßAla-norleucinamide(1H-1,2,3-triazol-4-yl)propionyl-ßAla-L-Ala-L-Ala-L-Pro-L-Val-colistin B [Compound 49]				antimicrobial activity (MIC) in the presence of neutrophil elastase (E. coli K12, 10 mU/ml elastase, T medium, 17.5 h at 37 °C (Figure S10)): > 32 µM; antimicrobial activity (MIC) in the absence of neutrophil elastase (E. coli K12, T medium, 17.5 h at 37 °C (Figure S10)): > 32 µM
Neutrophil elastase: Neutrophil Elastase (human), affinity purified, USBiological				antimicrobial activity of neutrophil elastase alone (elastase alone, two strains of E. coli (K12 and DSM 1116)): did not display any antimicrobial activity
